The numbers were not newly measured in patent US20060148897A1, “Method for sterilization using in situ gelling materials” (priority 2002, published 2006), which cites them from elsewhere.

For the data set the following is noted: amine group (alpha amine; lysine: side chain epsilon amine).

As to `NC(=O)C[C@H](N)C(=O)O` [asparagine], the pK is 8.8. `NCCCC[C@H](N)C(=O)O` [lysine]: the pK is given as 10.80.
